This passage reports IC50 results from BindingDB's records for doi:10.7270/Q2SX6GDH (n/a, 1996).

For test [1], the target named is T1, 5-hydroxytryptamine receptor 3A/3B (Rattus norvegicus, UniProt P35563+Q9JJ16).
T1 sequence (P35563 whole entry): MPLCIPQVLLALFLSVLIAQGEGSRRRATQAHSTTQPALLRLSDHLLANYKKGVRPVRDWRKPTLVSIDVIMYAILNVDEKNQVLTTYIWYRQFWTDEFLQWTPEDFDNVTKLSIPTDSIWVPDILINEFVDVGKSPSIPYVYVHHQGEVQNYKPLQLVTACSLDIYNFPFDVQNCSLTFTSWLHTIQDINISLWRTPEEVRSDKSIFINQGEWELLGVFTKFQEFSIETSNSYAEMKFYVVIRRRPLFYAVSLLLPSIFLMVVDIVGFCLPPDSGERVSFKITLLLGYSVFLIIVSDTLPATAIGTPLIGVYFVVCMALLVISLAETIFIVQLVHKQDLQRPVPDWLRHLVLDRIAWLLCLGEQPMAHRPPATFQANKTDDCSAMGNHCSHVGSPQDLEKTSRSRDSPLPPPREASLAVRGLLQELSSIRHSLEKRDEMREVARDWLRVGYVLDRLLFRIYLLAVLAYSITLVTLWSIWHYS
T1 sequence (Q9JJ16 whole entry): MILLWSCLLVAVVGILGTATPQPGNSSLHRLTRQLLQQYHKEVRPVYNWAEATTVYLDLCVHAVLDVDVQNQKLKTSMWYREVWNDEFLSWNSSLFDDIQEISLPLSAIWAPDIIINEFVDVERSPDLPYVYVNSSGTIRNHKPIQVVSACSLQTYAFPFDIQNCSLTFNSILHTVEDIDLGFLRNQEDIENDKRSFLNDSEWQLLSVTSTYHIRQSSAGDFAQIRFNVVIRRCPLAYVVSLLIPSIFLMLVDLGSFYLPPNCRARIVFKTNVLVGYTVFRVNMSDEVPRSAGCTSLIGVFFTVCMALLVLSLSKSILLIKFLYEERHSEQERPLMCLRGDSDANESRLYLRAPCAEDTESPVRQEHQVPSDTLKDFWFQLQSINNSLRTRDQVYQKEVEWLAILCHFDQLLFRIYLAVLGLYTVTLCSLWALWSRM
As to the kind of experiment: (§1) Compound was tested for its ability to displace [3H]-Q-ICS 205-930 from 5-hydroxytryptamine 3 receptor in rat cortex homogenates.

Test [2] is described as follows: Compound was tested for its ability to displace [3H]8-OH-DPAT from 5-hydroxytryptamine 1A receptor in pig cortex.
Test [3] can be described thus: Compound was tested for its ability to displace [3H]mesulergine from 5-hydroxytryptamine 2C receptor in pig cortex.
Test [4] can be described thus: Compound was tested for its ability to displace [3H]-5-HT binding to 5-hydroxytryptamine 1D receptor recognition sites in pig caudate membranes.
Test [5] deals with T2, 5-hydroxytryptamine receptor 1D (Sus scrofa, UniProt P79400). As to the kind of experiment: (§2) Compound was tested for its ability to displace [3H]-5-HT binding to 5-hydroxytryptamine 1D receptor recognition sites in pig caudate membranes.
Test [6] concerns the target T2, 5-hydroxytryptamine receptor 1D. Briefly: ChEBML_1955. On the procedure:
as §2

The target of test [7] is 5-hydroxytryptamine receptor 2A (Rattus norvegicus, UniProt P14842). As to the kind of experiment: ChEBML_2582. On the procedure:
Compound was tested for its ability to displace [3H]DOB from 5-hydroxytryptamine 2A receptor in rat cortex homogenates

For test [8], the target named is T1, 5-hydroxytryptamine receptor 3A/3B. Briefly: ChEBML_3165. On the procedure:
as §1

For test [9], the target named is T2, 5-hydroxytryptamine receptor 1D. Briefly: Compound was tested for its ability to displace [125I]GTI binding to 5-hydroxytryptamine 1D receptor recognition sites in pig caudate membranes.

T2 sequence (P79400 whole entry): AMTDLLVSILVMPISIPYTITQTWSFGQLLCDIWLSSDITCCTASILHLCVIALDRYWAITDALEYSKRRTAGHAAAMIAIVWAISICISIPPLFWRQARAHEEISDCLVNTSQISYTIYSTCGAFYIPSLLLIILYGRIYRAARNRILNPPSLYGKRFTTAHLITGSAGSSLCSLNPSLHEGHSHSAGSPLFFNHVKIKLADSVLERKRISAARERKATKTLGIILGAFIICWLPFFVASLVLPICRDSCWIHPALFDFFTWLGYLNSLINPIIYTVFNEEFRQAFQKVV
5-hydroxytryptamine receptor 2A, sequence (P14842 whole entry): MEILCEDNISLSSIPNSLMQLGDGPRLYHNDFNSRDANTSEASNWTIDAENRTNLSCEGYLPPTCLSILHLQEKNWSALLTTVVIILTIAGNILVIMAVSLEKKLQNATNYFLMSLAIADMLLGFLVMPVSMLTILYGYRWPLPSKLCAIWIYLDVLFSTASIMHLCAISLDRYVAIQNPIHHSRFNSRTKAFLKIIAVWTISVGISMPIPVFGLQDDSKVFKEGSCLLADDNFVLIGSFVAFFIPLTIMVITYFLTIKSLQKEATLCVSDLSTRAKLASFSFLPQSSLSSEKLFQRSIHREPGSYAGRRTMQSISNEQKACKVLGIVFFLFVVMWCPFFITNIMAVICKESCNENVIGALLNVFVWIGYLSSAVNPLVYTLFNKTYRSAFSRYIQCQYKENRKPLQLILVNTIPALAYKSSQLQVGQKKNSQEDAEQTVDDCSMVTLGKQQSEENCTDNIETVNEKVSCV

Turning to `CNS(=O)(=O)Cc1ccc2[nH]cc(CCN(C)C)c2c1` [Sumax], the IC50 (commonly the concentration that inhibits the measured activity by half) in test [1] was above 10000 nM.

In the case of `CN(C)CCc1c[nH]c2ccc(-n3cncn3)cc12`, the figures for the IC50 in test [2], in test [3] and in [4] were 25 nM, 500 nM and 20 nM, respectively.

With `CN(C)CCc1c[nH]c2ccc(-n3cnnc3)cc12` [Dimethyl-[2-(5-[1,2,4]triazol-4-yl-1H-indol-3-yl)-ethyl]-amine], the IC50 in [5] was 2 nM; in test [6] it was 0.43 nM; in test [7] it was above 10000 nM; in test [8] it was above 10000 nM.

In the case of `CN(C)CCc1c[nH]c2ccc(Cn3cncn3)cc12` [N,N-dimethyl-2-[5-(1H-1,2,4-triazol-1-ylmethyl)-1H-indol-3-yl]ethanamine], the IC50 in [5] stood at 49 nM; in test [7] it was 7200 nM; in [1] it was 4100 nM; in test [9] it was 16 nM.

Consider `CN1CCC(c2c[nH]c3ccc(-n4cnnc4)cc23)CC1`, for which the 50% inhibitory concentration (IC50) is 8 nM in test [5], 1.2 nM in test [6], above 10000 nM in test [7] and 2700 nM in test [1].
